Data from publication PMC8688152, “Distinct classes of potassium channels fused to GPCRs as electrical signaling biosensors” (Cell Reports Methods, 2021).

Key:
M2_T-00-43 = target: T1, M2_T-00-43 (UniProt P08172+P97438); experiment: TEVC recording of M2_T-00-43 ICCR in Xenopus oocytes; type: cell-based, human (M2), mouse (TREK-1); design: full-length (−00) or M2 deleted of its last nine residues (−09) in the indicated ICCRs; expressed in transfected cells; host or cells: Xenopus oocytes (mRNA injection)
T1 sequence (P08172+P97438 with tags, fused parts or gaps): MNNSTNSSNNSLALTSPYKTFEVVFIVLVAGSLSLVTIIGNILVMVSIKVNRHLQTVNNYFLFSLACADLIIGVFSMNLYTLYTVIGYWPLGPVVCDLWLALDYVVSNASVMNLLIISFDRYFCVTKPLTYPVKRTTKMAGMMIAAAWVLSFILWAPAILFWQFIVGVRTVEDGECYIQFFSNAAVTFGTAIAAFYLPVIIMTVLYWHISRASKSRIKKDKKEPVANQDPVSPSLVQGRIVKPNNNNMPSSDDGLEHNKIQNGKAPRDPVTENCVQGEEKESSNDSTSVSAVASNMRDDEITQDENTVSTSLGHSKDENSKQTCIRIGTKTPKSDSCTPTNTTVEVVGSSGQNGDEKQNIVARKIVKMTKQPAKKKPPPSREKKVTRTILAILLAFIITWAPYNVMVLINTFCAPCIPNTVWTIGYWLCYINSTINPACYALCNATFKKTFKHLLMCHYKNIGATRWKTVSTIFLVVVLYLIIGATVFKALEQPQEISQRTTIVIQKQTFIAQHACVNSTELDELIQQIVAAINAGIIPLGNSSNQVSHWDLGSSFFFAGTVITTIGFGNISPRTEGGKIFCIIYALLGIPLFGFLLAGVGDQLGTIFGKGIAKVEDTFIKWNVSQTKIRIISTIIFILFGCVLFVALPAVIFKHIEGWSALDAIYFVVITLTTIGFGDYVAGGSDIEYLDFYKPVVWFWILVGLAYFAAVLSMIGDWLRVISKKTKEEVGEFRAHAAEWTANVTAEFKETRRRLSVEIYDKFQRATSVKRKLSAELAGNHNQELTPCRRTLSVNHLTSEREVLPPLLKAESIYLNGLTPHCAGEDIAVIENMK
Procedure: (§1) Xenopus oocytes were prepared as previously reported ([Moreau et al., 2008]). Briefly, after surgical retrieval, the oocytes were defolliculated by type 1A collagenase. Each oocyte was injected with 50 nl of RNAse-free water containing the desired mRNAs. The mRNA quantities used per oocyte were: ICCR with Kcv, 2.7 ng (M2_Kcv and D2_Kcv) and 2.9 ng (OXTR_Kcv); ICCR with mTREK-1, 4.2 ng; ICCR with Kir6.2, 4.3 ng; M2, 2.3 ng; D2, 2.2 ng; Kir3.4T, 2.2 ng; Kcv 0.46 ng and mTREK-1, 2.1 ng. Microinjected oocytes were incubated 2 to 3 days at 19°C in modified-Barth's solution (in mM: 1 KCl, 0.82 MgSO4, 88 NaCl, 2.4 NaHCO3, 0.41 CaCl2, 16 HEPES, pH 7.4) supplemented with 100 U.ml^−1 of penicillin and streptomycin and 0.1 mg.mL^−1 of gentamycin. Animal handling and experiments fully conformed to European regulations and were approved by the French Ministry of Higher Education and Research (APAFIS#4420-2016030813053199 v4 to CM). Authorization of the animal facility has been delivered by the Prefect of Isere (Authorization #D 38 185 10 001).
Two-electrode voltage-clamp (TEVC) recordings were performed automatically with HiClamp robots (MultiChannel Systems). These TEVC robots rapidly change the applied solutions by transferring the oocytes in different wells of a 96-well plate. […] Microelectrodes were filled with […]. During recordings, oocytes were incubated in low potassium concentration buffer (ND96, in mM: 96 NaCl, 2 KCl, 1.8 CaCl2, 1 MgCl2, 5 HEPES, pH 7.4 supplemented with 0.3 niflumic acid), and in high potassium buffer (in mM: 91 KCl, 1.8 CaCl2, 1 MgCl2, 5 HEPES, 0.3 niflumic acid, pH 7.4). The membrane voltage was clamped to −50 mV. Ligands and BaCl2 were diluted in the high potassium buffer. […] Ligand effects were measured in high potassium concentration buffer with the membrane potential clamped to −50 mV and at 19°C.
Change of potassium current induced by ligand was calculated either with the barium-sensitive currents as a 0-reference for Kcv-based ICCRs or with the currents in ND96 for mTREK-1 ICCRs. Softwares created by Michel Vivaudou ([Vivaudou, 2019]) were used to extract the raw data.

M2_T-00-43 S300A S333A = target: T2, M2_T-00-43 S300A S333A (UniProt P08172+P97438, S315A/S348A); experiment: TEVC recording of phosphorylation-deficient M2_T-00-43 S300A S333A; type: cell-based, human (M2), mouse (TREK-1); settings: ACh 5 μM
T2 construct: full-length (−00) or M2 deleted of its last nine residues (−09) in the indicated ICCRs; expressed in transfected cells; host or cells: Xenopus oocytes (mRNA injection); gene synthesized by GeneCust
T2 sequence (P08172+P97438 fused P97438:S300A/P97438:S333A): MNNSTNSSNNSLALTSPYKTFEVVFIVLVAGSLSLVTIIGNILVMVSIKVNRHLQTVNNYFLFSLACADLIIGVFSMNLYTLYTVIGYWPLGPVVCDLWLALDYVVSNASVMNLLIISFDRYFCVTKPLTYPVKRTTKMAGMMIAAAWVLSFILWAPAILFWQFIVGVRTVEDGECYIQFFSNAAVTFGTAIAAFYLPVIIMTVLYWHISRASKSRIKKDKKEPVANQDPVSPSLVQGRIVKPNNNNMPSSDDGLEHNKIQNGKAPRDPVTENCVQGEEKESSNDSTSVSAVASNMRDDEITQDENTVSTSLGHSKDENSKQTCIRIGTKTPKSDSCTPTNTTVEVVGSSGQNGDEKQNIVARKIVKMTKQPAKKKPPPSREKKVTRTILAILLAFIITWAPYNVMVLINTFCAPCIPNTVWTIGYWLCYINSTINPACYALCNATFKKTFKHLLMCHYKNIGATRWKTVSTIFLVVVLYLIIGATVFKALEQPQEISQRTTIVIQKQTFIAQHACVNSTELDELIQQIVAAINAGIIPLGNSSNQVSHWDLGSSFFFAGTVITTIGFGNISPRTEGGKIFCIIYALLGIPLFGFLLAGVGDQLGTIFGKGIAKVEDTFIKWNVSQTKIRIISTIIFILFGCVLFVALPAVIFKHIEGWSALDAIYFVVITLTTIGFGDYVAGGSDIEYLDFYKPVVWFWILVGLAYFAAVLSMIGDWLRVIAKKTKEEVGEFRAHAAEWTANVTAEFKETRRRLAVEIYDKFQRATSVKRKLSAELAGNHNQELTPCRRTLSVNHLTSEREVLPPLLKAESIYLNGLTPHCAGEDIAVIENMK
Procedure: (§2) Microelectrodes were filled with […]. […] The membrane voltage was clamped to −50 mV.

M2_T-00-37 = target: T3, M2_T-00-37 (UniProt P08172+P97438); experiment: TEVC recording of M2_T-00-37 ICCR in Xenopus oocytes; type: cell-based, human (M2), mouse (TREK-1); settings: 91 mM K+, Vm = −50 mV, mean ± SEM
T3 construct: M2_T-00-37 with zero deletion in the M2 receptor C terminus (full-length receptor); expressed in transfected cells; host or cells: Xenopus oocytes (mRNA injection)
T3 sequence (P08172+P97438 fused): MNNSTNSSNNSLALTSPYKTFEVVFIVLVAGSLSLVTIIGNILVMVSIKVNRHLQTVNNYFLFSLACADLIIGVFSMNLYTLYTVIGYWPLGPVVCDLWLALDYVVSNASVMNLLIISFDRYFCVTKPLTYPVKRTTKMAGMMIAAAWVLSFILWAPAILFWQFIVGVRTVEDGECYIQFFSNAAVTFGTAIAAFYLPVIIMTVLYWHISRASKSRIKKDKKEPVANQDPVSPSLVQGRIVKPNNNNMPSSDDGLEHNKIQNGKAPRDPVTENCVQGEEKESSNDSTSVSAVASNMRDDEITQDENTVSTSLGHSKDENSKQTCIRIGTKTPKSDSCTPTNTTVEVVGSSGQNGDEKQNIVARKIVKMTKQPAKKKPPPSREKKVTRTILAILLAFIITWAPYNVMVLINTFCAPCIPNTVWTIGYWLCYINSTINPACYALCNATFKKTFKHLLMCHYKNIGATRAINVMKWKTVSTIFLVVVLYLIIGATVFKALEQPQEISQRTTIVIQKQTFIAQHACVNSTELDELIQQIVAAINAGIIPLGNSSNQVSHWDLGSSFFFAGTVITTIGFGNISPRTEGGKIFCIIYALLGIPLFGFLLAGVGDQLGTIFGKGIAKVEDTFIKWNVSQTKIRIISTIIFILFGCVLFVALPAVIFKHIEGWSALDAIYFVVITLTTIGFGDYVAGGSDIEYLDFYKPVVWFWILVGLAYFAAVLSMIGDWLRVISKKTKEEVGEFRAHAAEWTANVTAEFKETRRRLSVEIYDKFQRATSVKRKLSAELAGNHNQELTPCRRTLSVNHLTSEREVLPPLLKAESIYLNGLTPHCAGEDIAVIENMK
Procedure: as §2

[1] = tested on: M2_Kcv-09-xx constructs with larger deletions up to 12 residues; type: cell-based, human (M2), Paramecium bursaria chlorella virus 1 (Kcv); settings: ACh 5 μM, TEVC
Procedure: as §1, with “Authorization of the animal facility has been delivered by the Prefect of Isere (Authorization #D 38 185 10 001).” left out
Two-electrode voltage-clamp (TEVC) recordings were performed automatically with HiClamp robots (MultiChannel Systems). […] Ligand effects were measured in high potassium concentration buffer with the membrane potential clamped to −50 mV and at 19°C.
Change of potassium current induced by ligand was calculated either with the barium-sensitive currents as a 0-reference for Kcv-based ICCRs or with the currents in ND96 for mTREK-1 ICCRs. […]

M2_T-09-40 = target: T4, M2_T-09-40 (UniProt P08172+P97438); experiment: TEVC recording of M2_T-09-40 in Xenopus oocytes; type: cell-based, human (M2), mouse (TREK-1); settings: ACh 5 μM
T4 construct: expressed in transfected cells; host or cells: Xenopus oocytes (mRNA injection)
T4 sequence (P08172+P97438 fused): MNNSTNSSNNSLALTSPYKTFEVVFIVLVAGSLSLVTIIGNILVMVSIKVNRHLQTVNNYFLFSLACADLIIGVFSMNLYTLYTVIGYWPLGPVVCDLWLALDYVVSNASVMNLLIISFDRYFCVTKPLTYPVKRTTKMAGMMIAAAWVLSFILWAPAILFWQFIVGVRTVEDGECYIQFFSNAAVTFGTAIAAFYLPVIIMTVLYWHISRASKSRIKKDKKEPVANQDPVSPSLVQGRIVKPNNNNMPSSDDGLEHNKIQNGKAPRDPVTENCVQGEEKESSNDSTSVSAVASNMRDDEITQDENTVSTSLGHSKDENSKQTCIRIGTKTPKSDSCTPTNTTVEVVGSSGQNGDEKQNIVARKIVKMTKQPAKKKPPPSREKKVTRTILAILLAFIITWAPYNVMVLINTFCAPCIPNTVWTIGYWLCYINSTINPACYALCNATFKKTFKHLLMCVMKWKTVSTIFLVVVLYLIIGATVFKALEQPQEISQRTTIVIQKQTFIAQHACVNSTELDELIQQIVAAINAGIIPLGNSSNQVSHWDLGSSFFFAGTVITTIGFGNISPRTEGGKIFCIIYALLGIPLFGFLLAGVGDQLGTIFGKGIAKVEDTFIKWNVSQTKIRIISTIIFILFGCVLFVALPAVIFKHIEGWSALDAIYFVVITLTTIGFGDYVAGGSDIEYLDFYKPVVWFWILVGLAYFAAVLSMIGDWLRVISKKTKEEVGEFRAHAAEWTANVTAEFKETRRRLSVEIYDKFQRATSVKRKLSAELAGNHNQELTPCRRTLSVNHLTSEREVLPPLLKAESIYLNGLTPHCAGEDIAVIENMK
Procedure: as §2

Question: For `CC(=O)OCC[N+](C)(C)C` [ACh, acetylcholine], which “Hill coefficient (nH) on M2_T-00-43” value (M2_T-00-43) is on record?
Answer: 0.76

Question: And the “activation: % of current change induced by ACh 5 μM on M2_T-00-43” value (M2_T-00-43)?
Answer: 49.9% ± 5.1%

Question: What about the “activation: % of current change induced by ACh 5 μM on M2_T-00-43 co-expressed with PTX” value (M2_T-00-43; 5 μM, co-injection of mRNA for pertussis toxin S1 subunit, mean ± SEM) of the same compound?
Answer: 49.3% ± 4.4%

Question: And the “activation of the S300A S333A double mutant of M2_T-00-43 by ACh” value (M2_T-00-43 S300A S333A)?
Answer: preserved activation

Question: And the “activation: % of current change induced by ACh 5 μM on M2_T-00-37” value (M2_T-00-37)?
Answer: 3.9% ± 0.9%

Question: And the “response of M2_Kcv-09 constructs with larger deletions up to 12 residues to ACh” value [1]?
Answer: did not yield significant responses

Question: And the “regulation of M2_T-09-40 by ACh” value (M2_T-09-40)?
Answer: no significant regulation
